Earlier results as cited in patent publication US7183112B2, “Uses for anti-malarial therapeutic agents” (APT Pharmaceuticals, LLC, priority 1999, dated 2007).
Counter-ions that a name gives are not always drawn. Like-named read-outs stand apart in the source and are kept apart here.

Assays:
[1] = system: allergic asthma; conditions: Fahy et al. 1999, cited from earlier work
[2] = cited from earlier work

Molecule	efficacy for treating allergic asthma ([1]; inhalation)	efficacy for treating allergic asthma ([1]; intravenous administration)	solubility in water [2]
Anti IgE(E25): Anti IgE(E25), given intravenously or by inhalation for allergic asthma (Fahy et al.)	virtually ineffective	effective	–
CCN(CCO)CCCC(C)Nc1ccnc2cc(Cl)ccc12 (stereo not drawn) [hydroxychloroquine sulfate]	–	–	readily soluble
